Laboratory results: PubChem BioAssay AID328 (DTP/NCI, 2004)
Where “and” joins values, the source holds several entries; their conditions need not be identical. Equal entries are not always repeated. Inconclusive results and toxic doses are left out.

Test system: BDF1 mice, P388 leukemia ip, median survival T/C
Assay: NCI In Vivo Anticancer Drug Screen. Data for tumor model P388 Leukemia (intraperitoneal) in B6D2F1 (BDF1) mice
Conditions: endpoint: median survival time, higher = longer survival
How it was run: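 Antitumour effect was judged in vivo: survival in drug-treated mice, normalised to that of vehicle-dosed controls, gives the reported T/C.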

[1] = dose: 100.0 mg/kg/injection, schedule: Q04DX003 (ip), vehicle: Klucel (hydroxypropylcellulose) (HPC)
[2] = dose: 200.0 mg/kg/injection, schedule: Q04DX003 (ip), vehicle: Klucel (hydroxypropylcellulose) (HPC)
[3] = dose: 400.0 mg/kg/injection, schedule: Q04DX003 (ip), vehicle: Klucel (hydroxypropylcellulose) (HPC)
[4] = dose: 100.0 mg/kg/injection, schedule: Q04DX002 (ip), vehicle: saline with Tween-80
[5] = dose: 100.0 mg/kg/injection, schedule: Q01DX009 (ip), vehicle: Klucel (hydroxypropylcellulose) (HPC)
[6] = dose: 200.0 mg/kg/injection, schedule: Q01DX009 (ip), vehicle: Klucel (hydroxypropylcellulose) (HPC)
[7] = dose: 100.0 mg/kg/injection, schedule: Q04DX003 (ip), vehicle: saline with Tween-80
[8] = dose: 200.0 mg/kg/injection, schedule: Q04DX003 (ip), vehicle: saline with Tween-80
[9] = dose: 400.0 mg/kg/injection, schedule: Q04DX003 (ip), vehicle: saline with Tween-80

Compound: CC(C)(C)CC(Cl)Cl
- T/C (dose: 75.0 mg/kg/injection, schedule: Q01DX009 (ip), vehicle: Klucel (hydroxypropylcellulose) (HPC)): 100 % of control
- T/C [1]: 100 % of control
- T/C (dose: 150.0 mg/kg/injection, schedule: Q01DX009 (ip), vehicle: Klucel (hydroxypropylcellulose) (HPC)): 100 % of control
- T/C [2]: 100 % of control
- T/C [3]: 107 % of control

Compound: O=C1CC2(C(=O)N1CN(Cc1ccccc1)Cc1ccccc1)c1ccccc1-c1ccccc12
- T/C [4]: 87 % of control
- T/C (dose: 200.0 mg/kg/injection, schedule: Q04DX002 (ip), vehicle: saline with Tween-80): 86 % of control
- T/C (dose: 400.0 mg/kg/injection, schedule: Q04DX002 (ip), vehicle: saline with Tween-80): 93 % of control

Compound: CCSc1nc(C(OC)OC)c(Cc2ccccc2)c(=O)[nH]1
- T/C [1]: 90 % of control
- T/C [2]: 90 % of control
- T/C [3]: 90 % of control

Compound: CC(=O)Nc1cc(F)c([N+](=O)[O-])cc1[N+](=O)[O-]
- T/C (dose: 0.62 mg/kg/injection, schedule: Q01DX009 (ip), vehicle: saline): 115 % of control
- T/C (dose: 1.25 mg/kg/injection, schedule: Q01DX009 (ip), vehicle: saline): 100 % of control
- T/C (dose: 2.5 mg/kg/injection, schedule: Q01DX009 (ip), vehicle: Klucel (hydroxypropylcellulose) (HPC)): 105 % of control
- T/C (dose: 2.5 mg/kg/injection, schedule: Q01DX009 (ip), vehicle: saline): 300 % of control and 100 % of control
- T/C (dose: 5.0 mg/kg/injection, schedule: Q01DX009 (ip), vehicle: Klucel (hydroxypropylcellulose) (HPC)): 115 % of control
- T/C (dose: 5.0 mg/kg/injection, schedule: Q01DX009 (ip), vehicle: saline): 300 % of control and 110 % of control
- T/C (dose: 10.0 mg/kg/injection, schedule: Q01DX009 (ip), vehicle: Klucel (hydroxypropylcellulose) (HPC)): 100 % of control
- T/C (dose: 10.0 mg/kg/injection, schedule: Q01DX009 (ip), vehicle: saline): 300 % of control and 105 % of control
- T/C (dose: 20.0 mg/kg/injection, schedule: Q01DX009 (ip), vehicle: Klucel (hydroxypropylcellulose) (HPC)): 110 % of control
- T/C (dose: 20.0 mg/kg/injection, schedule: Q01DX009 (ip), vehicle: saline): 95 % of control

Compound: COC(=O)C(CO)NC(=O)OCc1ccccc1 (stereo not given)
- T/C (dose: 12.5 mg/kg/injection, schedule: Q01DX009 (ip), vehicle: water): 100 % of control
- T/C (dose: 25.0 mg/kg/injection, schedule: Q01DX009 (ip), vehicle: water): 100 % of control
- T/C (dose: 50.0 mg/kg/injection, schedule: Q01DX009 (ip), vehicle: water): 96 % of control
- T/C (dose: 100.0 mg/kg/injection, schedule: Q01DX009 (ip), vehicle: water): 96 % of control
- T/C (dose: 200.0 mg/kg/injection, schedule: Q01DX009 (ip), vehicle: water): 100 % of control

Compound: Nc1nc(F)nc2c1ncn2C1OC(CO)C(O)C1O (stereo not given)
- T/C (dose: 0.5 mg/kg/injection, schedule: Q01DX010 (ip), vehicle: saline): 90 % of control and 108 % of control
- T/C (dose: 1.0 mg/kg/injection, schedule: Q01DX010 (ip), vehicle: saline): 100 % of control and 108 % of control
- T/C (dose: 2.0 mg/kg/injection, schedule: Q01DX010 (ip), vehicle: saline): 110 % of control and 120 % of control
- T/C (dose: 4.0 mg/kg/injection, schedule: Q01DX010 (ip), vehicle: saline): 105 % of control and 112 % of control

Compound: c1ccc2c(c1)ccc1c2c[n+](CCCCCCCC[n+]2cc3c4ccccc4ccc3c3ccccc32)c2ccccc12
- T/C (dose: 1.56 mg/kg/injection, schedule: Q01DX009 (ip), vehicle: other): 165 % of control
- T/C (dose: 6.25 mg/kg/injection, schedule: Q01DX009 (ip), vehicle: other): 98 % of control
- T/C (dose: 12.5 mg/kg/injection, schedule: Q01DX009 (ip), vehicle: other): 106 % of control
- T/C (dose: 25.0 mg/kg/injection, schedule: Q01DX009 (ip), vehicle: other): 95 % of control

Compound: O=[N+]([O-])c1cccnc1Cl
- T/C (dose: 50.0 mg/kg/injection, schedule: Q01DX009 (ip), vehicle: Klucel (hydroxypropylcellulose) (HPC)): 91 % of control
- T/C [5]: 100 % of control
- T/C [1]: 104 % of control
- T/C [6]: 91 % of control
- T/C [2]: 100 % of control

Compound: NC(=O)c1cc(=S)[nH]c2nc(Cl)nc(N)c12
- T/C [4]: 120 % of control

Compound: O=C(/C=C\c1ccc(O)cc1)c1ccccc1
- T/C [5]: 105 % of control
- T/C [1]: 108 % of control
- T/C [6]: 110 % of control
- T/C [2]: 100 % of control
- T/C (dose: 400.0 mg/kg/injection, schedule: Q01DX009 (ip), vehicle: Klucel (hydroxypropylcellulose) (HPC)): 110 % of control
- T/C [3]: 104 % of control

Compound: C#CC(=O)C1OC2OC(C)(C)OC2C2OC(C)(C)OC12 (stereo not given)
- T/C (dose: 3.12 mg/kg/injection, schedule: Q01DX005 (ip), vehicle: saline with Tween-80): 100 % of control
- T/C (dose: 6.25 mg/kg/injection, schedule: Q01DX005 (ip), vehicle: saline with Tween-80): 107 % of control
- T/C (dose: 12.5 mg/kg/injection, schedule: Q01DX005 (ip), vehicle: saline with Tween-80): 107 % of control

Compound: CNC(=O)c1ccc(C(=O)NC)cc1
- T/C [7]: 100 % of control
- T/C [8]: 100 % of control
- T/C [9]: 109 % of control

Compound: COc1cc(OC)c(OC)cc1/C=C/c1ccc2ccccc2n1
- T/C [7]: 100 % of control
- T/C [8]: 88 % of control
- T/C [9]: 88 % of control

Compound: CC(=O)[C@@]1(O)CC[C@H]2[C@@H]3C[C@H](C)C4=CC(=O)CC[C@]4(C)[C@H]3[C@@H](O)C[C@@]21C
- T/C [7]: 109 % of control
- T/C (dose: 200.0 mg/kg/injection, schedule: Q01DX009 (ip), vehicle: saline with Tween-80): 122 % of control
- T/C [8]: 109 % of control
- T/C (dose: 400.0 mg/kg/injection, schedule: Q01DX009 (ip), vehicle: saline with Tween-80): 90 % of control
- T/C [9]: 118 % of control

Compound: ClCCCN1CCN(CCCCl)CC1
- T/C (dose: 6.25 mg/kg/injection, schedule: Q01DX009 (ip), vehicle: distilled water + alcohol): 101 % of control
- T/C (dose: 12.5 mg/kg/injection, schedule: Q01DX009 (ip), vehicle: distilled water + alcohol): 99 % of control
- T/C (dose: 25.0 mg/kg/injection, schedule: Q01DX009 (ip), vehicle: distilled water + alcohol): 115 % of control
- T/C (dose: 100.0 mg/kg/injection, schedule: Q01DX009 (ip), vehicle: distilled water + alcohol): 171 % of control

Compound: CCC(CC)C(=O)NC
- T/C (dose: 50.0 mg/kg/injection, schedule: Q01DX005 (ip), vehicle: saline with Tween-80): 104 % of control
- T/C (dose: 100.0 mg/kg/injection, schedule: Q01DX005 (ip), vehicle: saline with Tween-80): 104 % of control
- T/C (dose: 200.0 mg/kg/injection, schedule: Q01DX005 (ip), vehicle: saline with Tween-80): 95 % of control

Compound: COC(=O)c1cc(C)n(C)c(=O)c1CNS(=O)(=O)c1ccccc1
- T/C [7]: 98 % of control
- T/C [8]: 100 % of control
- T/C [9]: 98 % of control

Compound: COC1=C(C)C(=O)c2c(c(COC(N)=O)c3n2CC2C3N2C)C1=O (stereo not given)
- T/C (dose: 2.0 mg/kg/injection, schedule: Q01DX009 (ip), vehicle: saline sonified): 120 % of control

Compound: O=c1c2ccc(Cl)cc2[nH]c2ccc(Cl)cc12
- T/C (dose: 25.0 mg/kg/injection, schedule: Q04DX003 (ip), vehicle: saline with Tween-80): 103 % of control
- T/C (dose: 50.0 mg/kg/injection, schedule: Q04DX003 (ip), vehicle: saline with Tween-80): 100 % of control
- T/C [7]: 99 % of control

Compound: O=C(Nc1ccc(NC(=O)Nc2ccc(C3=NCCCN3)cc2)cc1)Nc1ccc(C2=NCCCN2)cc1
- T/C (dose: 8.3 mg/kg/injection, schedule: Q04DX003 (ip), vehicle: saline): 122 % of control
- T/C (dose: 12.0 mg/kg/injection, schedule: Q04DX003 (ip), vehicle: saline): 122 % of control
- T/C (dose: 19.0 mg/kg/injection, schedule: Q04DX003 (ip), vehicle: saline): 165 % of control
- T/C (dose: 29.0 mg/kg/injection, schedule: Q04DX003 (ip), vehicle: saline): 175 % of control
- T/C (dose: 65.0 mg/kg/injection, schedule: Q04DX003 (ip), vehicle: saline): 154 % of control
- T/C (dose: 95.0 mg/kg/injection, schedule: Q04DX003 (ip), vehicle: saline): 163 % of control
